{"source": "patent US9028845B2", "about": "“Chimeric immunomodulatory compounds and methods of using the same-IV” (Dynavax Technologies Corporation, priority 2001, dated 2015)", "key": {"mouse splenocytes": {"tested_on": "mouse splenocytes", "assay": "Mouse splenocyte cytokine secretion (IL-6, IL-12, IFN by ELISA)", "type": "cell-based, BALB/c mice", "design": "IFN: unit not given beside the values", "conditions": "24 h", "method": "Polynucleotides and chimeric compounds were tested for immunostimulatory activity on mouse splenocytes. Immunostimulation was assessed by measurement of cytokine secretion into the culture media. Cytokine levels in the culture supernatant were determined by enzyme-linked immunosorbent assay (ELISA) tests.\nCells were isolated and prepared using standard techniques. Spleens of 8 to 20 week-old BALB/c mice were harvested and the splenocytes isolated using standard teasing and treatment with ACK lysing buffer from BioWhittaker, Inc. Four spleens were pooled in this experiment. Isolated cells were washed in RPMI 1640 media supplemented with 2% heat-inactivated fetal calf serum (FCS), 50 μM 2-mercaptoethanol, 1% penicillin-streptomycin, and 2 mM L-glutamine and resuspended at approximately […] in 10% FCS/RPMI (RPMI 1640 media with 10% heat-inactivated FCS, 50 μM 2-mercaptoethanol, 1% penicillin-streptomycin, and 2 mM L-glutamine).\nCell cultures were set up in triplicate with approximately 7×10^5 cells/well in a 96-well flat microtiter plate in 100 μl 10% FCS/RPMI with the cells allowed to rest for at lest 1 hour after plating. The indicated test compounds were incubated (at the indicated concentrations) for 24 hours at 37° C. Cell supernatants were harvested and frozen at −80° C. Cytokine production by the cells was determined by ELISAs, as shown in 19."}, "mice": {"tested_on": "mice", "assay": "Serum cytokines (IL-12 p40, IL-6, TNF-α) after subcutaneous injection in mice", "type": "in vivo", "conditions": "20 ug subcutaneous, blood 2 hours later", "procedure,_shortened": "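Blood was taken 2 h after subcutaneous injection. LPS positive-control mice were dosed intraperitoneally and bled at 1.5 h, at the peak of TNF-α. Sera were stored at −80° C and TNF-α, IL-6 and IL-12 were measured by immunoassay kits or antibody pairs in duplicate.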"}, "CD19+ B cells": {"tested_on": "CD19+ B cells", "assay": "Human B cell proliferation assay (3H-thymidine incorporation)", "conditions": "2 μg/ml; for cpm1 / cpm2 / cpm3 / mean cpm / mean of both: B cells"}, "PBMCs": {"tested_on": "PBMCs", "assay": "Human PBMC proliferation assay (3H-thymidine incorporation)", "type": "cell-based", "conditions": "Experiment A; for mean cpm: 2 μg/ml"}}, "note": "Strand notation (5' to 3'): a small letter for the sugar, then the base; units joined by * are phosphorothioate-linked, units joined directly phosphodiester-linked; [ ] holds rarer units or linkages, { } end groups; capitals alone tell only the bases. d = 2'-deoxy (DNA)", "data": [{"substance": "5′-TGACTGTGAACCTTAGAGATGA-3′ (SEQ ID NO: 3) (dT*dG*dA*dC*dT*dG*dT*dG*dA*dA*dC*dC*dT*dT*dA*dG*dA*dG*dA*dT*dG*dA) [Compound P-7, negative control, reference compound]", "values": [{"measurement": "IFN", "setting": "mouse splenocytes; dose 1.0 μg/ml", "value": 30}, {"measurement": "IL-6", "setting": "mouse splenocytes; dose 1.0 μg/ml", "value": 7}, {"measurement": "IL-12", "setting": "mouse splenocytes; dose 1.0 μg/ml", "value": 143}, {"measurement": "IFN", "setting": "mouse splenocytes; dose 5.0 μg/ml", "value": 23}, {"measurement": "IL-6", "setting": "mouse splenocytes; dose 5.0 μg/ml", "value": 9}, {"measurement": "IL-12", "setting": "mouse splenocytes; dose 5.0 μg/ml", "value": 177}, {"measurement": "induction of serum IL-12 p40, IL-6 and TNF-α, in words", "setting": "mice", "value": "inactive"}, {"measurement": "B cell proliferation, in words", "setting": "CD19+ B cells; 48 h plus 8 h 3H-thymidine pulse", "value": "little to no B cell proliferation"}, {"measurement": "cpm1", "setting": "CD19+ B cells; Donor 146, Experiment A", "value": 4858, "unit": "cpm"}, {"measurement": "cpm2", "setting": "CD19+ B cells; Donor 146, Experiment A", "value": 5810, "unit": "cpm"}, {"measurement": "cpm3", "setting": "CD19+ B cells; Donor 146, Experiment A", "value": 7079, "unit": "cpm"}, {"measurement": "mean cpm", "setting": "CD19+ B cells; Donor 146 mean, Experiment A", "value": 5916, "unit": "cpm"}, {"measurement": "cpm1", "setting": "CD19+ B cells; Donor 147, Experiment A", "value": 4364, "unit": "cpm"}, {"measurement": "cpm2", "setting": "CD19+ B cells; Donor 147, Experiment A", "value": 4066, "unit": "cpm"}, {"measurement": "cpm3", "setting": "CD19+ B cells; Donor 147, Experiment A", "value": 2774, "unit": "cpm"}, {"measurement": "mean cpm", "setting": "CD19+ B cells; Donor 147 mean, Experiment A", "value": 3735, "unit": "cpm"}, {"measurement": "cpm1", "setting": "CD19+ B cells; donor 121, Experiment B", "value": 1623, "unit": "cpm"}, {"measurement": "cpm2", "setting": "CD19+ B cells; donor 121, Experiment B", "value": 1821, "unit": "cpm"}, {"measurement": "cpm3", "setting": "CD19+ B cells; donor 121, Experiment B", "value": 2901, "unit": "cpm"}, {"measurement": "mean cpm", "setting": "CD19+ B cells; donor 121 mean, Experiment B", "value": 2115, "unit": "cpm"}, {"measurement": "cpm1", "setting": "CD19+ B cells; donor 194, Experiment B", "value": 1992, "unit": "cpm"}, {"measurement": "cpm2", "setting": "CD19+ B cells; donor 194, Experiment B", "value": 1593, "unit": "cpm"}, {"measurement": "cpm3", "setting": "CD19+ B cells; donor 194, Experiment B", "value": 1686, "unit": "cpm"}, {"measurement": "mean cpm", "setting": "CD19+ B cells; donor 194 mean, Experiment B", "value": 1757, "unit": "cpm"}, {"measurement": "mean of both", "setting": "CD19+ B cells; mean of Donors 146 and 147, Experiment A", "value": 4825, "unit": "cpm"}, {"measurement": "mean of both", "setting": "CD19+ B cells; mean of donors 121 and 194, Experiment B", "value": 1936, "unit": "cpm"}, {"measurement": "cpm1", "setting": "PBMCs; Donor 146, 2 μg/ml", "value": 7620, "unit": "cpm"}, {"measurement": "cpm2", "setting": "PBMCs; Donor 146, 2 μg/ml", "value": 8362, "unit": "cpm"}, {"measurement": "cpm3", "setting": "PBMCs; Donor 146, 2 μg/ml", "value": 9686, "unit": "cpm"}, {"measurement": "mean cpm", "setting": "PBMCs; Donor 146 mean", "value": 8556, "unit": "cpm"}, {"measurement": "cpm1", "setting": "PBMCs; Donor 147, 2 μg/ml", "value": 9783, "unit": "cpm"}, {"measurement": "cpm2", "setting": "PBMCs; Donor 147, 2 μg/ml", "value": 9841, "unit": "cpm"}, {"measurement": "cpm3", "setting": "PBMCs; Donor 147, 2 μg/ml", "value": 10476, "unit": "cpm"}, {"measurement": "mean cpm", "setting": "PBMCs; Donor 147 mean", "value": 10033, "unit": "cpm"}, {"measurement": "mean of both", "setting": "PBMCs; mean of Donors 146 and 147, 2 μg/ml", "value": 9295, "unit": "cpm"}]}]}
